The source of these data is article PMC7026418, “The kinase polypharmacology landscape of clinical PARP inhibitors” (Scientific Reports, 2020).

The structures appear in SMILES notation. Read-outs that look alike come from different tables or passages of the source.

Holding throughout (experiment): biochemical
Common to all, as to set-up: DiscoveRx KINOMEscan active site-directed competition binding; percent of control kinase bound to immobilised ligand

Assay [1] addresses BLK (Homo sapiens, UniProt P51451).
Assay [2] addresses FGFR4 (Homo sapiens, UniProt P22455).
Assay [3] concerns the target T1, MEK3 (Homo sapiens, UniProt P46734).
T1 construct: gene MAP2K3
T1 sequence (P46734 1-347): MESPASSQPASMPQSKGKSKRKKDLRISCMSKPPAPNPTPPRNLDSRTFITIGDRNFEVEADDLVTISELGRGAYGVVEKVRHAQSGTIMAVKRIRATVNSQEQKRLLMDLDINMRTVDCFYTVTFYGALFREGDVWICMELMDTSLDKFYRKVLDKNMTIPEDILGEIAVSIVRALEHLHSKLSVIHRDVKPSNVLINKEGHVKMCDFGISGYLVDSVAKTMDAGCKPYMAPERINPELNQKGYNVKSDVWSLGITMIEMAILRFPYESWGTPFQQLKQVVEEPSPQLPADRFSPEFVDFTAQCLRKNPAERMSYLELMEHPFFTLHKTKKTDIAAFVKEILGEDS

Assay [4] has as its target T2, NDR1 (Homo sapiens, UniProt Q15208).
T2 construct: gene STK38

In assay [5] the target is PAK4 (Homo sapiens, UniProt O96013).
For assay [6], the target named is PIP5K1C (Homo sapiens, UniProt O60331).
Sequence of PIP5K1C (O60331 whole entry): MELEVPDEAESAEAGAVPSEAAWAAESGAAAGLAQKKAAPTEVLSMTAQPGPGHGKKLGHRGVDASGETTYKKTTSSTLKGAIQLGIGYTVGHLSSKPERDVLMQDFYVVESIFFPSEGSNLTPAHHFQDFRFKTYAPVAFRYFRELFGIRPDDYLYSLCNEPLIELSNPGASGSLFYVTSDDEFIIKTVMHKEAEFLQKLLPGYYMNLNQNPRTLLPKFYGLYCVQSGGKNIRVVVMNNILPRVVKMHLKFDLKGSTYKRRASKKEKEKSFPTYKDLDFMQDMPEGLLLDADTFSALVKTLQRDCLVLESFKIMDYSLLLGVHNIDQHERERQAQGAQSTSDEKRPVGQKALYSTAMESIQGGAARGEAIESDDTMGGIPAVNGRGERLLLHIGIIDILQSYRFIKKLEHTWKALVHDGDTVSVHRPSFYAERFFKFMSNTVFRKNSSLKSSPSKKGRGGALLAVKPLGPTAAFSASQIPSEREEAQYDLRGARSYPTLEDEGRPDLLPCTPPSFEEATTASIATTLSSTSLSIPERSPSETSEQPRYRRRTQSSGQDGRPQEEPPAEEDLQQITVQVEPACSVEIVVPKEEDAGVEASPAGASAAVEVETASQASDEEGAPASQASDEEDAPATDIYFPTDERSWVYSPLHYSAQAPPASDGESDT
For assay [7], the target named is PKN1 (Homo sapiens, UniProt Q16512).
Sequence of PKN1 (Q16512 whole entry): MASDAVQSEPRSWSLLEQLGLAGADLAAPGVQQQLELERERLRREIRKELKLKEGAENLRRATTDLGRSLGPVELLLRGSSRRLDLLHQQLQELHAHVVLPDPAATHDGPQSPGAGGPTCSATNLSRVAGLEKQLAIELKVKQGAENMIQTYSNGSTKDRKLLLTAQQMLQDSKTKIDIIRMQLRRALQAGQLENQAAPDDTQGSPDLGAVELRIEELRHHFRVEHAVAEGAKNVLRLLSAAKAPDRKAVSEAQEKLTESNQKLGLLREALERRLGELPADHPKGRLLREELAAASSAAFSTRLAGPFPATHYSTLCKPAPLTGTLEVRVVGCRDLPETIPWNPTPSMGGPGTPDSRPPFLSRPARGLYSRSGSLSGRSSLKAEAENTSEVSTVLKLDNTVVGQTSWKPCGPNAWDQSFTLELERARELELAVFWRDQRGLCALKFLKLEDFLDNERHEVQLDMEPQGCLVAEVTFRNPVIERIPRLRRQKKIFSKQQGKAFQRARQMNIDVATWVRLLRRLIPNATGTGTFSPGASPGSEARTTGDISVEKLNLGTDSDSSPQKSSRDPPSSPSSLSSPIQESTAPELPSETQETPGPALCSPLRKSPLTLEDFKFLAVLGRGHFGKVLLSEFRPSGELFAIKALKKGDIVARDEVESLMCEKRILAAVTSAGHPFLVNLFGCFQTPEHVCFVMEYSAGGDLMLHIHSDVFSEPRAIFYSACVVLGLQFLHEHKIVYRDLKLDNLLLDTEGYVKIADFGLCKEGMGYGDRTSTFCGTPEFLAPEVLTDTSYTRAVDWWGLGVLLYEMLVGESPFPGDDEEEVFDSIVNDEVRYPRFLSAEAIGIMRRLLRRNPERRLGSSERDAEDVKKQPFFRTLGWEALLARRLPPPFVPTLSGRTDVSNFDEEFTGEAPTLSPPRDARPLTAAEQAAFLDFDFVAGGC
Assay [8] deals with PKN2 (Homo sapiens, UniProt Q16513).
Sequence of PKN2 (Q16513 whole entry): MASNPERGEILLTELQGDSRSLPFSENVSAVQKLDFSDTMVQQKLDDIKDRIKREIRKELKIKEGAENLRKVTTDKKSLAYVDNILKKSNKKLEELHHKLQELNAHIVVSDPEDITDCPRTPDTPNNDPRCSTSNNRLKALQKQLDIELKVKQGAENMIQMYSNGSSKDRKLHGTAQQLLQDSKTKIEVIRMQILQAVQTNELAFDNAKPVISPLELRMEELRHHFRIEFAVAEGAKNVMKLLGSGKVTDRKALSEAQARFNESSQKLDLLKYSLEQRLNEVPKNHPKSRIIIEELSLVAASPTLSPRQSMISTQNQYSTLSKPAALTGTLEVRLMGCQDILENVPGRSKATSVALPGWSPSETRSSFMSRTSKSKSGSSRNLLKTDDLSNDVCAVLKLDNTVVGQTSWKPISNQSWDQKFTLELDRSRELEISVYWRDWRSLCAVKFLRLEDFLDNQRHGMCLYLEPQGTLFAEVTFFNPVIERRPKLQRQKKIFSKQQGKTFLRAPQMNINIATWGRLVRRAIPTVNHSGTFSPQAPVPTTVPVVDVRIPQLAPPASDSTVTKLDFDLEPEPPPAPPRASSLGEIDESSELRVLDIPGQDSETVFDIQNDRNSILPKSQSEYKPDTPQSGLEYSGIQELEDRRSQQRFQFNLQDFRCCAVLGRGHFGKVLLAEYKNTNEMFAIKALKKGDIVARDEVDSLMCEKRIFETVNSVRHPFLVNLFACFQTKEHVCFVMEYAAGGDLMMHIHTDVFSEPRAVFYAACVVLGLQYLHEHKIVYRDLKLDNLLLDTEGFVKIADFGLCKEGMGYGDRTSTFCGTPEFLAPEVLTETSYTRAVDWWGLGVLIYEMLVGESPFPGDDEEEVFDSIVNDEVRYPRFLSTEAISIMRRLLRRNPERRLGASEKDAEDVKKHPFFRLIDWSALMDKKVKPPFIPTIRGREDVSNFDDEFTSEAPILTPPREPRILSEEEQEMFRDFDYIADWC
Assay [9] concerns the target T3, PRKD1 (Homo sapiens, UniProt Q15139).
T3 sequence (Q15139 1-912): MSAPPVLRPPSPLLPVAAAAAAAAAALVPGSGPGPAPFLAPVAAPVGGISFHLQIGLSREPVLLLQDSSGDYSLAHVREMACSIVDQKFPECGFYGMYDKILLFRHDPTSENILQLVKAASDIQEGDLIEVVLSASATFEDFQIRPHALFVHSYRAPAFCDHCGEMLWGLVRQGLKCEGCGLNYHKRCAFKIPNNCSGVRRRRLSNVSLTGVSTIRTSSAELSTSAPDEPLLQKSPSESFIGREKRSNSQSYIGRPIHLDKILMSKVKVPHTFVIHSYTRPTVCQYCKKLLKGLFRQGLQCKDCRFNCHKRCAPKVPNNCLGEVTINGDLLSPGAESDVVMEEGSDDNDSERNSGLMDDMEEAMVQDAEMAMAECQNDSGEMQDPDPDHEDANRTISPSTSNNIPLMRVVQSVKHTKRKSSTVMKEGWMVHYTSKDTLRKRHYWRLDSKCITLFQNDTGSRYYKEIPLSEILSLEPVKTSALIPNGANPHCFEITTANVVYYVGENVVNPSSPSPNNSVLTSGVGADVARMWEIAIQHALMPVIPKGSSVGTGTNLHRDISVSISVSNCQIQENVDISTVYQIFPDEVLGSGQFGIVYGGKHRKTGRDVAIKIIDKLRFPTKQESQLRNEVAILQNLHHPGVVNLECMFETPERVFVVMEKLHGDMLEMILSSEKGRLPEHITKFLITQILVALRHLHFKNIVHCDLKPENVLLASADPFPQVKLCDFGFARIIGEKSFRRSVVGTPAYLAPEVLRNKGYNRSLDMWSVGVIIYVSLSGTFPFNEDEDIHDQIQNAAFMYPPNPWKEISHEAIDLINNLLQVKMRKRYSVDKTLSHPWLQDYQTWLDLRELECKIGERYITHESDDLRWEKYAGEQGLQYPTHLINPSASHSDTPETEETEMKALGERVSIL

Assay [10] concerns the target T4, PRKG1 (Homo sapiens, UniProt Q13976).
T4 sequence (Q13976 1-671): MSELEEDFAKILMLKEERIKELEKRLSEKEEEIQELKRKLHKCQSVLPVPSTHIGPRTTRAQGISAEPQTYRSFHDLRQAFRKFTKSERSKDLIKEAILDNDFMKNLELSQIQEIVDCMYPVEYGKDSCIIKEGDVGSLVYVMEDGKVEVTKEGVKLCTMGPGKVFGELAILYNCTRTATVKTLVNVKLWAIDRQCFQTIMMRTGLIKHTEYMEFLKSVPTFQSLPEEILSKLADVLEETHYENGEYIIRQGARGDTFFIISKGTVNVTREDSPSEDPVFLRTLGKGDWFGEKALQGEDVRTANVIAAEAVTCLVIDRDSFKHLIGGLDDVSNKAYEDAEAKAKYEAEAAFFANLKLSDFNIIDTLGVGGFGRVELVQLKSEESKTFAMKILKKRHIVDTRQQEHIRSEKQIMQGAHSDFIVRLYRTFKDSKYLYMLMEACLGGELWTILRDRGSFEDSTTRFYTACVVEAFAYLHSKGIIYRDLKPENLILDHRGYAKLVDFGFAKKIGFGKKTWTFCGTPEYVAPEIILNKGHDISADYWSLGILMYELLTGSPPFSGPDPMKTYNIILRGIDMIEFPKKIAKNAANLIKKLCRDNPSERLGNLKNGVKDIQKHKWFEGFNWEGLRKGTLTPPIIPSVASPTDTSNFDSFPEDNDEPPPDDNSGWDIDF

Assay [11] addresses TNK2 (Homo sapiens, UniProt Q07912).
Setting [12] is: read-out: Niraparib (MK-4827) / %Ctrl @ 10000nM.
The mark [13] stands for this setting: read-out: Olaparib / %Ctrl @ 10000nM.
Where [14] appears, read: read-out: Rucaparib / %Ctrl @ 10000nM, binding competition, % of control.
Where [15] appears, read: read-out: Talazoparib (BMN 673) / %Ctrl @ 10000nM.

Sequence of BLK (P51451 whole entry): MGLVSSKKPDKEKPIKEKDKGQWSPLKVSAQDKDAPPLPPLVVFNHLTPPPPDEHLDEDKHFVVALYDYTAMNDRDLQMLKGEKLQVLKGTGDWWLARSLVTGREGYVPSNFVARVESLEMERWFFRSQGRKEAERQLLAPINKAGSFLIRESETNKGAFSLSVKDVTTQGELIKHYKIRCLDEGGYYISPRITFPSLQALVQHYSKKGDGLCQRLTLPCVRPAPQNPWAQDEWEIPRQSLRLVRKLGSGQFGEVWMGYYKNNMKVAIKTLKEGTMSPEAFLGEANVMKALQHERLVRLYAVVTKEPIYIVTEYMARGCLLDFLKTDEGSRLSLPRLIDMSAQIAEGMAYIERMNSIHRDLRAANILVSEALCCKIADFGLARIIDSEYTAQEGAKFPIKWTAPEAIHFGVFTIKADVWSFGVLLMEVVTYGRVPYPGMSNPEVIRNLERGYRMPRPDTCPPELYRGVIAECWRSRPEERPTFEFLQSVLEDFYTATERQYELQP
T2 sequence (Q15208 whole entry): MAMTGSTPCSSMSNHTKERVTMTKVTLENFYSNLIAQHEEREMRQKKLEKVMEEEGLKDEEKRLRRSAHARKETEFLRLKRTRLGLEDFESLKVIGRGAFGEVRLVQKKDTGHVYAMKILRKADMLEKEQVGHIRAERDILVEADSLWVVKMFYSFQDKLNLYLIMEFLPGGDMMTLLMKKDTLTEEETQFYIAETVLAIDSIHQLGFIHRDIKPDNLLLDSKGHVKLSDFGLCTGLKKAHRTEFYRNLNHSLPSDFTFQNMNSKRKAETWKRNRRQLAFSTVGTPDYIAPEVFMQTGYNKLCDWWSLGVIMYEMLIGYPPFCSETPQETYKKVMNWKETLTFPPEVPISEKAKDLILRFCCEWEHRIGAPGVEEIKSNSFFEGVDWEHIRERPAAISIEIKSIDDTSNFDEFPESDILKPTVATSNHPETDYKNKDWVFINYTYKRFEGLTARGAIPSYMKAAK
Sequence of TNK2 (Q07912 whole entry): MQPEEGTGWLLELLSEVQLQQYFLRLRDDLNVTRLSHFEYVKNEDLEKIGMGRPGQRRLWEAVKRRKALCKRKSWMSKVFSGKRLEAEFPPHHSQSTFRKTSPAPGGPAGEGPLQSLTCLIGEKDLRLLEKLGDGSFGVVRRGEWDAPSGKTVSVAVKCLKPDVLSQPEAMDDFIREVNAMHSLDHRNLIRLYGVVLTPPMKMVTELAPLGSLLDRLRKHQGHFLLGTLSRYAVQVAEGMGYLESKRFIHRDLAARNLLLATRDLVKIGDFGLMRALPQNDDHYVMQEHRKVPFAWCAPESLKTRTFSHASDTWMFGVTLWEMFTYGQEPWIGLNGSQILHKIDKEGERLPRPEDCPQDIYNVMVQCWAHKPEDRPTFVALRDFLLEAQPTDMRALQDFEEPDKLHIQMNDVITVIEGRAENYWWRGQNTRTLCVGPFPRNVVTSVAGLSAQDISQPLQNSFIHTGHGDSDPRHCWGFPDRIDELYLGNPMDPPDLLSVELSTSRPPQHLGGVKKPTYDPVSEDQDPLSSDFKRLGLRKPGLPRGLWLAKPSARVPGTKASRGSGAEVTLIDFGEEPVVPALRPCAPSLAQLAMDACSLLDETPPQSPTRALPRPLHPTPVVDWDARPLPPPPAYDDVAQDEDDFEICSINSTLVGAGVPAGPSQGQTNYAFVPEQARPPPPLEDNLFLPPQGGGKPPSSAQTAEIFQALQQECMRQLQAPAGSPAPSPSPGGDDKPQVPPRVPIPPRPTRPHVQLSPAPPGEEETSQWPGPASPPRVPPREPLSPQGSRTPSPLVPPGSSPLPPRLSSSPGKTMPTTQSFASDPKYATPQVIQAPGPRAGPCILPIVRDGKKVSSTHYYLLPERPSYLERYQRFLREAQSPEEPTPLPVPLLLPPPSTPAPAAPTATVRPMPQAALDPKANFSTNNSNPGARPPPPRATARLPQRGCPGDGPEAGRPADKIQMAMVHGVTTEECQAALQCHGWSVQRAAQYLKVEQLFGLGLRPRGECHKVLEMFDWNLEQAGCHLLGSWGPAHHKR

For the molecule `NC(=O)c1cccc2cn(-c3ccc([C@@H]4CCCNC4)cc3)nc12` [Niraparib], the percent of control binding at 10 µM is 72% in [1] (setting [12]); 94% in assay [2] (setting [12]); 80% in assay [3] (setting [12]); 100% in [4] (setting [12]); 88% in [5] (setting [12]); 83% in [6] (setting [12]). Also, the percent of control binding at 10 µM turned out to be 69% in assay [7] (setting [12]); 95% in assay [8] (setting [12]); 86% in [9] (setting [12]); 100% in [10] (setting [12]); 91% in assay [11] (setting [12]).
Consider `O=C(c1cc(Cc2n[nH]c(=O)c3ccccc23)ccc1F)N1CCN(C(=O)C2CC2)CC1` [Olaparib], for which the percent of control binding at 10 µM in assay [1] (setting [13]) worked out at 90%; in [2] (setting [13]) it was 82%; in assay [3] (setting [13]) it was 85%; in assay [4] (setting [13]), 100%; in assay [5] (setting [13]), 100%; in [6] (setting [13]) it was 100%. Moreover, the percent of control binding at 10 µM in [7] (setting [13]) worked out at 83%; in [8] (setting [13]), 100%; in [9] (setting [13]), 89%; in [10] (setting [13]), 100%; in assay [11] (setting [13]), 95%.
Turning to `CNCc1ccc(-c2[nH]c3cc(F)cc4c3c2CCNC4=O)cc1` [Rucaparib], the percent of control binding at 10 µM was found to be 91% in [1] (setting [14]); 91% in assay [2] (setting [14]); 83% in [3] (setting [14]); 69% in assay [4] (setting [14]); 80% in assay [5] (setting [14]); 100% in assay [6] (setting [14]). Further, the percent of control binding at 10 µM worked out at 78% in assay [7] (setting [14]); 99% in assay [8] (setting [14]); 67% in [9] (setting [14]); 91% in assay [10] (setting [14]); 100% in assay [11] (setting [14]).
Regarding `Cn1ncnc1[C@H]1c2n[nH]c(=O)c3cc(F)cc(c23)N[C@@H]1c1ccc(F)cc1` [Talazoparib], the percent of control binding at 10 µM in assay [1] (setting [15]) was found to be 99%; in [2] (setting [15]) it was 100%; in [3] (setting [15]) it was 65%; in assay [4] (setting [15]), 72%; in [5] (setting [15]) it was 89%; in assay [6] (setting [15]) it was 100%. The percent of control binding at 10 µM worked out at 74% in assay [7] (setting [15]); 85% in assay [8] (setting [15]); 100% in assay [9] (setting [15]); 57% in assay [10] (setting [15]); 97% in [11] (setting [15]).
